This note sets out measurements from ChEMBL document CHEMBL1128563, “Quantitative structural activity relationship study of bis-tetraazacyclic compounds. A novel series of HIV-1 and HIV-2 inhibitors” (J Med Chem, 1995).

Assay [1] has as its system Human immunodeficiency virus 1. The assay is described as follows: Antiretroviral activity against HIV-1 infected HUT-78 cells. It counts as functional, organism-based. Conditions: Human immunodeficiency virus 1, HuT78; read-out: Log 1/EC50 (converted).
For assay [2], the system named is Human immunodeficiency virus 2. The assay is described as follows: Antiretroviral activity against HIV-2 infected HUT-78 cells. The following applies: Human immunodeficiency virus 2, HuT78; read-out: Log 1/EC50 (converted).
A further assay has as its system HuT78. Briefly: Cellular cytotoxicity against HUT-78 cells. It counts as functional. The following applies: Homo sapiens.
Assay [3] has as its system Human immunodeficiency virus 1. The assay is described as follows: Inhibition of syncytium formation using HIV-1 IIIB strain gaint cell inhibition assay. It is filed as functional, organism-based. The following applies: read-out: Log 1/EC50 (converted).

As to `NCCCNCCNCCCNCc1ccc(CN2CCCNCCNCCCNCC2)cc1`, the figures for the EC50 in assay [1] and in assay [2] were 372 nM and 708 nM, respectively. The CC50 (as a rule, the concentration that lowers cell viability or growth by half) in the assay on HuT78 is 445000 nM.

Take `c1ccc(CN2CCCNCCNCCCNCC2)c(CN2CCCNCCNCCCNCC2)c1`: the EC50 in assay [1] was 1350 nM. For the same molecule, half-maximal cytotoxicity in the assay on HuT78 (CC50) was put at 169000 nM.

On to `c1cc(CN2CCCNCCNCCCNCC2)ccc1CN1CCCNCCNCCNCCC1`, for which the EC50 in assay [1] is 7.94 nM; in assay [2], 56.2 nM; in assay [3], 12.6 nM. The molecule further had a CC50 in the assay on HuT78 of 500000 nM.

Turning to `c1cc(CCCN2CCCNCCNCCCNCC2)ccc1CCCN1CCCNCCNCCCNCC1`, the EC50 in assay [1] was 398 nM. The midpoint of cytotoxicity with HuT78, the CC50, lay at 283000 nM.

Take `Cc1cc(CN2CCCNCCNCCCNCC2)c(C)cc1CN1CCCNCCNCCCNCC1`: the EC50 in assay [1] was 7.59 nM; in assay [2], 1.29 nM; in assay [3] it was 33.1 nM. This molecule returned a CC50 with HuT78 of 250000 nM.

In the case of `c1cc(CN2CCCNCCCNCCCNCCC2)ccc1CN1CCCNCCCNCCCNCCC1`, the EC50 in assay [1] was 9120 nM. In addition, it took 49000 nM to reach half-maximal cytotoxicity in the assay with HuT78 (CC50).

For the molecule `COc1cc(CN2CCCNCCNCCCNCC2)c(OC)cc1CN1CCCNCCNCCCNCC1`, the results for the EC50 in assay [1], in assay [2] and in assay [3] were 7.08 nM, 7.94 nM and 13.2 nM, respectively. Further, it took 250000 nM to reach half-maximal cytotoxicity in the assay on HuT78 (CC50).

As for `c1cc(CN2CCNCCCNCCNCC2)ccc1CN1CCNCCCNCCNCC1`, the figures for the EC50 in assay [1] and in assay [2] were 166 nM and 234 nM, respectively. Moreover, the midpoint of cytotoxicity with HuT78, the CC50, lay at 216000 nM.

On to `CCN1CCCN(CC)CCN(Cc2ccc(CN3CCCN(CC)CCN(CC)CCCN(CC)CC3)cc2)CCCN(CC)CC1`, for which the EC50 was 7760 nM in assay [1] and 33900 nM in assay [3]. Also, the CC50 in the assay on HuT78 turned out to be 342000 nM.

On to `c1cc(CC2CNCCNCCCNCCNC2)ccc1CC1CNCCNCCCNCCNC1`, for which the EC50 was 501 nM in assay [1] and 676 nM in assay [2]. This molecule also returned a CC50 with HuT78 of 406000 nM.

Turning to `c1cc(CN2CCCNCCCNCCNCCC2)cc(CN2CCCNCCCNCCNCCC2)c1`, the EC50 in assay [1] was 324 nM; in assay [2], 646 nM. The molecule also had a CC50 in the assay on HuT78 of 403000 nM.

Turning to `Brc1cc(CN2CCCNCCNCCCNCC2)cc(CN2CCCNCCNCCCNCC2)c1`, the EC50 is 85.1 nM in assay [1] and 53.7 nM in assay [2]. Moreover, half-maximal cytotoxicity with HuT78 (CC50) was put at 192000 nM.

With `C1CNCCNCCCN[C@H]([C@@H]2CNCCCNCCNCCCN2)CNC1`, in assay [1], the EC50 is 158 nM. Further, the CC50 in the assay on HuT78 is 369000 nM.

For `C(CCCN1CCCNCCNCCCNCC1)CCN1CCCNCCNCCCNCC1`, the EC50 in assay [1] is 692 nM; in assay [2] it was 708 nM. The midpoint of cytotoxicity in the assay on HuT78, the CC50, lay at 307000 nM.

`c1cc(CN2CCCNCCCNCCCNCC2)cc(CN2CCCNCCCNCCCNCC2)c1`: the EC50 in assay [1] is 2750 nM. The molecule also yielded a CC50 with HuT78 of 191000 nM.

For `c1cc(CN2CCCNCCNCCCNCC2)cc(CN2CCCNCCNCCCNCC2)c1`, the EC50 in assay [1] was 33.9 nM; in assay [2], 41.7 nM; in assay [3] it was 4170 nM. Also, half-maximal cytotoxicity in the assay with HuT78 (CC50) was put at 422000 nM.

As to `c1ncc(CN2CCCNCCNCCCNCC2)cc1CN1CCCNCCNCCCNCC1`, the EC50 in assay [1] was 31.6 nM; in assay [2] it was 70.8 nM. This molecule gave a CC50 with HuT78 of 395000 nM.

For the molecule `c1ccc(-c2cc(CN3CCCNCCNCCCNCC3)cc(CN3CCCNCCNCCCNCC3)c2)cc1`, the values for the EC50 in assay [1], in assay [2] and in assay [3] were 204 nM, 24.5 nM and 316 nM, respectively. Besides, the CC50 in the assay on HuT78 was found to be 198000 nM.

Turning to `c1cc(CN2CCCNCCNCCCNCC2)nc(CN2CCCNCCNCCCNCC2)c1`, the EC50 in assay [1] was 97.7 nM; in assay [2] it was 66.1 nM; in assay [3] it was 8130 nM. The molecule further showed a CC50 with HuT78 of 409000 nM.

In the case of `c1ccc2c(CN3CCCNCCNCCCNCC3)cc(CN3CCCNCCNCCCNCC3)cc2c1`, the EC50 is 158 nM in assay [1] and 79.4 nM in assay [2]. In the assay with HuT78, this molecule displayed a CC50 of 208000 nM.

For `C1CNCCNCCCN(CCCN2CCCNCCNCCCNCC2)CCNC1`, the EC50 in assay [1] is 138 nM; in assay [3] it was 12300 nM. The CC50 in the assay with HuT78 turned out to be 622000 nM.

As to `Clc1cc(CN2CCCNCCNCCCNCC2)c(Cl)cc1CN1CCCNCCNCCCNCC1`, the results for the EC50 in assay [1], in assay [2] and in assay [3] were 10.7 nM, 2.45 nM and 331 nM, respectively. The same molecule yielded a CC50 in the assay with HuT78 of 59000 nM.

For the molecule `c1cc(CN2CCCNCCCNCCCNCCC2)cc(CN2CCCNCCCNCCCNCCC2)c1`, the EC50 in assay [1] is 16600 nM. The CC50 in the assay with HuT78 was 193000 nM.

For the molecule `Fc1c(F)c(CN2CCCNCCNCCCNCC2)c(F)c(F)c1CN1CCCNCCNCCCNCC1`, the EC50 was 7.94 nM in assay [1], 7.94 nM in assay [2] and 31.6 nM in assay [3]. The same molecule gave a CC50 in the assay with HuT78 of 48000 nM.

Regarding `c1cc(CN2CCCNCCNCCNCCC2)ccc1CN1CCCNCCCNCCCNCCC1`, the EC50 in assay [1] is 316 nM. In the assay with HuT78, this molecule showed a CC50 of 121000 nM.

As for `c1cc(CN2CCCNCCNCCNCCC2)ccc1CN1CCCNCCNCCNCCC1`, the EC50 is 25.1 nM in assay [1] and 58.9 nM in assay [2]. The molecule also showed a CC50 in the assay on HuT78 of 500000 nM.

`Clc1c(Cl)c(CN2CCCNCCNCCCNCC2)c(Cl)c(CN2CCCNCCNCCCNCC2)c1Cl`: the EC50 in assay [1] is 200 nM; in assay [2], 2.51 nM; in assay [3], 6030 nM. In addition, in the assay on HuT78, it took 12000 nM to reach half-maximal cytotoxicity (CC50).

With `C1CNCCNCCCN(CCN2CCCNCCNCCCNCC2)CCNC1`, the EC50 in assay [1] was 11200 nM. In the assay with HuT78, this molecule returned a CC50 of 404000 nM.

Regarding `c1ccc2c(CN3CCCNCCNCCCNCC3)ccc(CN3CCCNCCNCCCNCC3)c2c1`, the EC50 is 55 nM in assay [1], 38.9 nM in assay [2] and 63.1 nM in assay [3]. In addition, the CC50 in the assay on HuT78 worked out at 56000 nM.

In the case of `O=[N+]([O-])c1cc(CN2CCCNCCNCCCNCC2)ccc1CN1CCCNCCNCCCNCC1`, the results for the EC50 in assay [1], in assay [2] and in assay [3] were 64.6 nM, 72.4 nM and 3240 nM, respectively. In the assay on HuT78, this molecule registered a CC50 of 203000 nM.

Regarding `Brc1c(CN2CCCNCCNCCCNCC2)cccc1CN1CCCNCCNCCCNCC1`, the EC50 in assay [1] is 138 nM; in assay [2], 245 nM. In addition, the CC50 in the assay with HuT78 stood at 144000 nM.

With `c1cc(CN2CCCNCCNCCCNCC2)ccc1CN1CCCNCCCNCCCNCC1`, in the assay with HuT78, the CC50 was 225000 nM.

For `O=[N+]([O-])c1cc(CN2CCCNCCNCCCNCC2)cc(CN2CCCNCCNCCCNCC2)c1`, the figures for the EC50 in assay [1], in assay [2] and in assay [3] were 40.7 nM, 56.2 nM and 64.6 nM, respectively. In the assay with HuT78, the CC50 is 45000 nM.

Take `c1cc(CN2CCCNCCCNCCNCCC2)cc(CN2CCCNCCNCCCNCC2)c1`: the EC50 in assay [1] is 85.1 nM; in assay [2], 759 nM. This molecule displayed a CC50 in the assay on HuT78 of 422000 nM.

Turning to `c1cc(CN2CCNCCCNCCNCC2)cc(CN2CCNCCCNCCNCC2)c1`, the EC50 is 40.7 nM in assay [1] and 61.7 nM in assay [2]. Also, the CC50 in the assay on HuT78 was 192000 nM.

For the molecule `Fc1c(CN2CCCNCCNCCCNCC2)cccc1CN1CCCNCCNCCCNCC1`, the EC50 is 34.7 nM in assay [1] and 74.1 nM in assay [2]. Besides, the CC50 in the assay on HuT78 was determined as 202000 nM.

Take `c1cc(CN2CCCNCCNCCCNCC2)ccc1CN1CCCNCCNCCCNCC1` [PLERIXAFOR]: the EC50 in assay [1] is 3.98 nM; in assay [2], 6.03 nM; in assay [3], 47.9 nM. In the assay on HuT78, the CC50 is 241000 nM.
